Data on 22 compounds can be found in patent publication EP1149092B1, “4- AND 5-ALKYNYLOXINDOLES AND 4- AND 5-ALKENYLOXINDOLES” (F. HOFFMANN-LA ROCHE AG, priority 1998, dated 2000).

Chain of rat SAPK (isoform β) (P49187 whole entry, canonical isoform): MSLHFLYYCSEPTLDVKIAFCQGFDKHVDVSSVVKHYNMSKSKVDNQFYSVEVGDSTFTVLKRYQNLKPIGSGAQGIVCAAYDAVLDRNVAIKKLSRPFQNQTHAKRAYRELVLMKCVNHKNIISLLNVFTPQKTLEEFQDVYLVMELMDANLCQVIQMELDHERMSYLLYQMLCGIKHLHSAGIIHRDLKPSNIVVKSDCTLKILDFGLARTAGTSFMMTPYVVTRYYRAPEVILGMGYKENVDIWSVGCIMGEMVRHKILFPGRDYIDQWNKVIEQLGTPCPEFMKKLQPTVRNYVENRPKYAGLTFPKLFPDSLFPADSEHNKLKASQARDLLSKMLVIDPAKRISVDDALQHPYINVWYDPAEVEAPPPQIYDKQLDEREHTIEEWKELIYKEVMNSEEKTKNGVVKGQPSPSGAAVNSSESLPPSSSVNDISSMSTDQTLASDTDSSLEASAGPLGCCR

The target of the assay is rat SAPK (isoform β) (Rattus norvegicus, UniProt P49187). Briefly: SAPK FlashPlate Assay (inhibition of cJun phosphorylation). It counts as biochemical. Conditions: GST-cJun substrate, 30 minutes at 37 °C. How it is done:
"IC50" refers to the concentration of a particular 4- or 5-alkynyloxindole or 4-or 5-alkenyloxindole required to inhibit 50% of cJun phosphorylation, which is a measure of inhibition of SAPK activity. IC50 can be measured, inter alia, using the assay described herein in Example 102.
Human JNK is highly homologous to rat SAPK. To measure the inhibitory activity of test compounds, the compounds were tested in the rat SAPK assay.
For the SAPK assay, purified GST-cJun (a chimeric protein containing cJun, a natural substrate of JNK) was coated on 96 well FlashPlates (New England Nuclear, Boston, MA). Purified rat SAPK (isoform β, Kyriakis et al. supra) was preincubated with preparations containing MEKK-1 and MKK4 for 30 minutes at 37 °C in assay buffer containing 25 mM HEPES, pH 7.5, 150 mM NaCl, 20 mM MgCl2, 2 mM DTT, 0.001% Tween 20, 1 µM ATP freshly added. In the preincubation step, MEKK-1 phosphorylates and activates MKK-4, which in tum phosphorylates and activates SAPK. The activated SAPK was then added to the cJun coated FlashPlates along with ^33P-ATP (0.32 µCi per reaction) and test compounds. The plates were incubated for 30 minutes at 37 °C, then washed with PBS, 0.01% Tween 20, and counted in the Topcount scintillation counter (Packard Instrument Co., Downers Grove, IL). Dilutions of compounds were tested in duplicate in each assay. The percent inhibition of cJun phosphorylation (a measure of inhibition of SAPK activity) was determined by the following formula: [formula] where "test compound" refers to the average counts per minute of the test duplicates, "nonspecific" refers to the average counts per minute when no SAPK was added, and "total" refers to the average counts per minute when no compound was added.
Consider `COc1cc[nH]c1/C=C1\C(=O)Nc2cccc(C#CC(O)c3ccc(NC(C)=O)cc3)c21` (racemic) [BBB, rac-(Z)-4-[3-(4-Acetamidophenyl)-3-hydroxy-1-propynyl]-1,3-dihydro-3-[(3-methoxy-1H-pyrrol-2-yl)methylene]-2H-indol-2-one], for which the IC50 (usually the concentration that gives 50% inhibition) was under 1 µM.
The result for `COc1ccccc1C(O)C#Cc1cccc2c1/C(=C/c1[nH]ccc1OC)C(=O)N2` (racemic) [Compound M, rac-(Z)-1,3-Dihydro-4-[3-hydroxy-3-(2-methoxyphenyl)-1-propynyl]-3-[(3-methoxy-1H-pyrrol-2-yl)methylene]-2H-indol-2-one] reads under 1 µM.
The result for `COc1cc(C(O)C#Cc2cccc3c2/C(=C/c2[nH]ccc2OC)C(=O)N3)ccc1OCCN1CCOCC1` (racemic) [Compound MM, rac-(Z)-1,3-Dihydro-4-[3-hydroxy-3-[3-methoxy-4-[2-(4-morpholinyl)-ethoxy]-phenyl]-1-propynyl]-3-[(3-methoxy-1H-pyrrol-2-yl)methylene]-2H-indol-2-one] reads under 1 µM.
For the compound `COc1cc[nH]c1/C=C1\C(=O)Nc2cccc(C#CC(C)(O)c3ccccc3)c21` (racemic) [Compound T, rac-(Z)-1,3-Dihydro-4-[3-hydroxy-3-phenyl-1-butynyl]-3-[(3-methoxy-1H-pyrrol-2-yl)methylene]-2H-indol-2-one], the IC50 amounted to 0.253 µM.
As for `COc1cc[nH]c1/C=C1\C(=O)Nc2cccc(C#CC(O)c3ccc(OCCN4CCOCC4)cc3)c21` (racemic) [Compound TT, rac-(Z)-1,3-Dihydro-4-[3-hydroxy-3-[4-[2-(4-morpholinyl)-ethoxy]-phenyl]-1-propynyl]-3-[(3-methoxy-1H-pyrrol-2-yl)methylene]-2H-indol-2-one], the IC50 is under 1 µM.
The result for `COc1cc[nH]c1/C=C1\C(=O)Nc2cccc(C#CC(O)c3ccc[nH]3)c21` (racemic) [DD, rac-(Z)-1,3-Dihydro-4-[3-hydroxy-3-(1H-pyrrol-2-yl)-1-propynyl]-3-[(3-methoxy-1H-pyrrol-2-yl)methylene]-2H-indol-2-one] reads under 1 µM.
The result for `COc1ccc(C(O)C#Cc2cccc3c2/C(=C/c2[nH]ccc2OC)C(=O)N3)cc1OC` (racemic) [FF, rac-(Z)-1,3-Dihydro-4-[3-(3,4-dimethoxyphenyl)-3-hydroxy-1-propynyl]-3-[(3-methoxy-1H-pyrrol-2-yl)methylene]-2H-indol-2-one] reads under 1 µM; that for `COc1ccc(C(O)C#Cc2cccc3c2/C(=C/c2[nH]ccc2OC)C(=O)N3)cc1O` (racemic) [HH, rac-(Z)-1,3-Dihydro-4-[3-hydroxy-3-(3-hydroxy-4-methoxyphenyl)-1-propynyl]-3-[(3-methoxy-1H-pyrrol-2-yl)methylene]-2H-indol-2-one], under 1 µM; that for `COc1cc[nH]c1/C=C1\C(=O)Nc2cccc(C#CC(O)c3sccc3OC)c21` (racemic) [OO, rac-(Z)-1,3-Dihydro-4-[3-hydroxy-3-(3-methoxy-2-thiophenyl)-1-propynyl]-3-[(3-methoxy-1H-pyrrol-2-yl)methylene]-2H-indol-2-one], under 1 µM.
With `COc1cc(OC)c(C(O)C#Cc2cccc3c2/C(=C/c2[nH]ccc2OC)C(=O)N3)cc1OC` (racemic) [PP, rac-(Z)-1,3-Dihydro-4-[3-hydroxy-3-(2,4,5-trimethoxyphenyl)-1-propynyl]-3-[(3-methoxy-1H-pyrrol-2-yl)methylene]-2H-indol-2-one], the IC50 was under 1 µM.
The result for `COc1cc[nH]c1/C=C1\C(=O)Nc2cccc(C#CC(O)c3ccc(O)cc3)c21` (racemic) [Q, rac-(Z)-1,3-Dihydro-4-[3-hydroxy-3-(4-hydroxyphenyl)-1-propynyl]-3-[(3-methoxy-1H-pyrrol-2-yl)methylene]-2H-indol-2-one] reads under 1 µM; that for `COc1cc(C(O)C#Cc2cccc3c2/C(=C/c2[nH]ccc2OC)C(=O)N3)ccc1OCC(=O)O` (racemic) [RR, rac-(Z)-[4-[3-[2,3-Dihydro-3-[(3-methoxy-1H-pyrrol-2-yl)methylene]-2-oxo-1H-indol-4-yl]-1-hydroxy-2-propynyl]-2-methoxyphenoxy]acetic acid], under 1 µM.
With `COc1cc[nH]c1/C=C1\C(=O)Nc2cccc(C#CC(O)c3cc(OC)c4c(c3)OCO4)c21` (racemic) [SS, rac-(Z)-4-[3-hydroxy-3-(4-methoxy-1,3-benzodioxol-6-yl)-1-propynyl]-1,3-dihydro-3-[(3-methoxy-1H-pyrrol-2-yl)methylene]-2H-indol-2-one], the IC50 is under 1 µM.
The result for `COc1cc[nH]c1/C=C1\C(=O)Nc2cccc(C#CC(O)c3ccc(Cl)cc3OCSC)c21` (racemic) [UU, rac-(Z)-4-[3-(4-Chloro-2-methylsulfanylmethoxyphenyl)-3-hydroxy-1-propynyl]-1,3-dihydro-3-[(3-methoxy-1H-pyrrol-2-yl)methylene]-2H-indol-2-one] reads under 1 µM.
The result for `COc1cc[nH]c1/C=C1\C(=O)Nc2cccc(C#CC(O)c3ccc(OCCCN(C)C)cc3)c21` (racemic) [V, rac-(Z)-1,3-Dihydro-4-[3-[4-(3-dimethylaminopropoxy)-phenyl]-3-hydroxy-1-propynyl]-3-[(3-methoxy-1H-pyrrol-2-yl)methylene]-2H-indol-2-one] reads 0.034 µM; that for `COc1cc[nH]c1/C=C1\C(=O)Nc2cccc(C#CC(O)c3ccco3)c21` (racemic) [VV, rac-(Z)-1,3-Dihydro-4-[3-(2-furanyl)-3-hydroxy-1-propynyl]-3-[(3-methoxy-1H-pyrrol-2-yl)methylene]-2H-indol-2-one], under 1 µM.
Compound `COc1cc[nH]c1/C=C1\C(=O)Nc2cccc(C#CC(O)c3ccc(OCC(=O)OC(C)(C)C)cc3)c21` (racemic) [XX, rac-(Z)-[4-[3-[2,3-dihydro-3-[(3-methoxy-1H-pyrrol-2-yl)methylene]-2-oxo-1H-indol-4-yl]-1-hydroxy-2-propynyl]phenoxy]acetic acid 1,1-dimethylethyl ester] showed an IC50 of under 1 µM.
Regarding `COc1cc[nH]c1/C=C1\C(=O)Nc2cccc(C#CC(O)c3ccc(OCC(=O)O)cc3)c21` (racemic) [YY, rac-(Z)-[4-[3-[2,3-dihydro-3-[(3-methoxy-1H-pyrrol-2-yl)methylene]-2-oxo-1H-indol-4-yl]-1-hydroxy-2-propynyl]phenoxy]acetic acid], the IC50 is under 1 µM.
The result for `COc1cc[nH]c1/C=C1\C(=O)Nc2cccc(C#Cc3ccccn3)c21` [DDD, (Z)-1,3-Dihydro-3-[(3-methoxy-1H-pyrrol-2-yl)methylene]-4-[(2-pyridinyl)ethynyl]-2H-indol-2-one] reads under 1 µM.
As for `COc1cc[nH]c1/C=C1\C(=O)Nc2cccc(C#Cc3ccncc3)c21` [EEE, (Z)-1,3-Dihydro-3-[(3-methoxy-1 H-pyrrol-2-yl)methylene]-4-[(4-pyridinyl)ethynyl]-2H-indol-2-one], the IC50 is under 1 µM.
For `COc1cc[nH]c1/C=C1\C(=O)Nc2ccc([N+](=O)[O-])c(C#Cc3cccnc3)c21` [GGG, (Z)-1,3-Dihydro-3-[(3-methoxy-1H-pyrrol-2-yl)methylene]-5-nitro-4-[(3-pyridinyl)ethynyl]-2H-indol-2-one], the IC50 is under 1 µM.
Regarding `COc1cc[nH]c1/C=C1\C(=O)Nc2ccc(N)c(C#Cc3cccnc3)c21` [HHH, (Z)-5-Amino-1,3-dihydro-3-[(3-methoxy-1H-pyrrol-2-yl)methylene]-4-[(3-pyridinyl)ethynyl]-2H-indol-2-one], the IC50 was under 1 µM.
